“And” between values parts separate entries of the source, which are not always exact repeats. Identical values can stand only once. “Also recorded” adds a separate entry of the source.

One assay deals with SIRT1. The experiment in a line: SIRT1 protein expression, immunoblot and densitometry in 3T3 L1 preadipocytes. The assay is classed as cell-based. To be noted: 24 hours; for SIRT1 protein expression compared to control: 3T3 L1 cells, 60 μM each compound; for SIRT1 protein expression vs control: 3T3L1 preadipocytes, 100 μM. Here is the method:
(§1) 3T3L1 cells were purchased from American Type Culture Collection (Manassas, Va., USA) and cultured in DMEM media containing 4.5 g/l glucose supplemented with 10% fetal bovine serum (Hyclone), 2 mM L-glutamine (Gibco), 100 U/ml penicillin, and 100 μg/ml streptomycin (Gibco). The cells were cultured at 37° C. in a humidified atmosphere with 10% CO2.
(§2) The 3T3L1 cells were plated at 6×10^4 cells/well in 12 well plates and incubated at 37° C. in a humidified atmosphere with 10% CO2. The media was removed after 24 hours and the cells were treated with 60 μM GR24 individually and in combination with 60 resveratrol and 60 μM pinosylvin, and incubated for 24 hours at 37° C. in a humidified atmosphere with 10% CO2. The media was removed, cells were washed with PBS, and cell lysates were collected on ice. Proteins were extracted using RIPA buffer along with protease and phosphatase inhibitors. Lysates were centrifuged for 30 min at high speed; supernatant was collected and stored at […] until further analysis. The vehicle controls were 3T3 L1 cells without any treatment with drugs or other compounds. The drugs or compounds that were used in all the experiments were dissolved or diluted in dimethylsulfoxide (DMSO) as diluent. In all experiments, the controls were treated with the same volume of DMSO as was used to dissolve drugs or compounds in compound-treated cells to show and ensure that the actual change in protein expression in different treatments was due solely to the compounds or combination of compounds and not to the DMSO.
(§3) Protein concentrations were measured using a BCA (bicinchoninic acid) protein assay kit (Cat.#23225; Pierce, Rockford, Ill.). Twenty (20) μg/lane of total cellular protein samples containing NuPAGE LDS sample buffer (Invitrogen) and reducing agent were loaded into 4-12% NuPAGE Bis-Tris gels (Invitrogen), subjected to gel electrophoresis, and transferred to polyvinylidene fluoride membranes (Amersham). For SIRT1 proteins, membranes were blocked in 0.05% TBS-Tween with 3% milk for 1 hour, incubated overnight at +4° C. with SIRT1 primary antibodies (Cat.#07-131, Millipore). For phospho-AMPKα and AMPKα proteins, blocking was done for 1 hour in 0.1% TBS-Tween with 5% milk. The membranes were incubated overnight at +4° C. with phospho-AMPKα (Cat. #2535, Cell Signaling) and AMPKα (Cat.#2532, Cell Signaling) primary antibodies. Horseradish peroxidase-conjugated anti-rabbit antibodies (Cat. #NA934V GE Health Care, Amersham, U.K) were used as secondary antibodies. For α-tubulin (loading control), membranes were blocked in 0.05% PBS-Tween with 3% milk for 1 hour, incubated with α-tubulin (Cat.# B-5-1-2, Sigma) primary antibodies for 1 hour at room temperature and horseradish peroxidase-conjugated anti-mouse (Cat. # NA 931V GE Health Care, Amersham, U.K.) IgG antibodies were used as secondary antibodies.
(§4) The membranes were developed using chemiluminescence (ECL plus, GE Health Care), and images were captured in an Image Quant RT-ECL machine (version 1.0.1; GE Health Care). Densitometry and quantification of the bands were done by applying Quantity One software (Bio-Rad). The expression levels of the proteins were normalized to α-tubulin protein levels.
3T3L1 cells were purchased from American Type Culture Collection (Manassas, Va., USA) and cultured in DMEM media containing 4.5 g/l glucose supplemented with 10% fetal bovine serum (Hyclone), 2 mM L-glutamine (Gibco) and 100 U/ml penicillin, 100 μg/ml streptomycin (Gibco). The cells were cultured at 37° C. in a humidified atmosphere with 10% CO2. 3T3L1 preadipocytes were plated at 1×10^5 cells/well in 6 well plates and incubated at 37° C. in a humidified atmosphere with 10% CO2. […] In all experiments, the controls were treated with the same volume of DMSO as was used to dissolve compounds in compound-treated cells to show and ensure that the actual change in protein expression in different treatments was only due to the compounds DMSO. […]

The test system of another assay is phospho-AMPK. The experiment in a line: phospho-AMPK expression / AMPK activation, immunoblot in 3T3 L1 preadipocytes. The assay is classed as cell-based. To be noted: 24 hours; for phospho-AMPK expression compared to control: 60 μM; for phosphorylated AMPK expression vs control: 3T3L1 preadipocytes, 100 μM. The procedure: as §1
as §2, with “The media was removed after 24 hours and the cells were treated with 60 μM GR24 individually and in combination with 60 resveratrol and 60 μM pinosylvin, and incubated for 24 hours at 37° C. in a humidified atmosphere with 10% CO2.” left out
as §3, §4
Background: A western blot detects proteins with antibodies after separation by electrophoresis.

In the next assay the test system is phospho-ACC. In words: phospho-ACC expression, immunoblot in 3T3 L1 preadipocytes. The assay is classed as cell-based. To be noted: 24 hours; for phosphorylated ACC expression vs control: 3T3L1 preadipocytes, 100 μM.
Assay [1] concerns acetyl-CoA carboxylase (ACC). In words: ACC expression, immunoblot in 3T3L1 preadipocytes. The assay is classed as cell-based. To be noted: 100 μM, 24 hours.
A further assay deals with fungal cell. To be noted: cited from earlier work.

In the case of `CC1=CC(O/C=C2/C(=O)O[C@@H]3c4ccccc4C[C@H]23)OC1=O` (stereo partly drawn) [GR24], the “SIRT1 protein expression compared to control” value in the assay with SIRT1 and in the assay on SIRT1 (listed as GR 24) was “significant increase; also recorded: significantly (*P<0.05) increased” throughout. Moreover, the “SIRT1 expression compared with resveratrol” value in the assay with SIRT1 (3T3 L1 preadipocytes, 60 μM) was “greater than did resveratrol”. The “SIRT1 protein expression compared to control (100%)” value in the assay with SIRT1 (3T3 L1 preadipocytes, 60 μM, control = 100%) was 168% and 164% and 198% and 220% and 149%. The “SIRT1 protein expression vs control” value in the assay with SIRT1 is “significantly increased”; in the assay with SIRT1 (listed as GR 24) it was “increase”. Further, the “AMPK activation (pAMPK/AMPK/α-tubulin ratio) compared to control” value in the assay with phospho-AMPK (3T3 L1 preadipocytes, 60 μM each compound) was “no activation”. The “phospho-AMPK expression compared to control” value with phospho-AMPK (3T3 L1 preadipocytes) is “significant increase in expression with resveratrol but not with GR24; also recorded: did not”; in the assay on phospho-AMPK (3T3 L1 preadipocytes, listed as GR 24), “significant increase in expression with resveratrol but not with GR 24”. Further, the “phosphorylated AMPK expression vs control” value in the assay with phospho-AMPK is given as “down-regulated”; with phospho-AMPK (listed as GR 24), “down-regulation”. Further, the “phospho-ACC expression (phosphorylation of ACC) compared to control” value in the assay with phospho-ACC (3T3 L1 preadipocytes, 60 μM) is “no change”. Further, the figures for the “phosphorylated ACC expression vs control” value with phospho-ACC and in the assay on phospho-ACC (listed as GR 24) were “down-regulated” and “decrease”, respectively. The “ACC protein expression vs control” value in assay [1] was “down-regulated”. Moreover, the “ATP content of the fungal cell” value in the assay with fungal cell was “rapid increase”. Further, the NADH concentration result in the assay with fungal cell was “rapid increase”. For the same compound, the NADH dehydrogenase activity result in the assay on fungal cell was “rapid increase”.

The values are drawn from patent US20140142170A1, “COMPOSITION AND METHOD FOR INFLUENCING ENERGY METABOLISM AND TREATING METABOLIC AND OTHER DISORDERS” (SIRTUIN VALLEY OY, priority 2010, published 2014).
